Test results published in US9018206B2, “Carboxamide compounds and their use as calpain inhibitors” (AbbVie Deutschland GmbH & Co. KG, priority 2009, dated 2015).

What was measured:
Format in all cases: biochemical
[1] = target: T1, calpain-I isolated from human erythrocytes (Homo sapiens, UniProt P07384); experiment: Calpain I enzyme inhibition in vitro (kinetic fluorescence assay); conditions: apparent Ki from IC50 (Cheng-Prussoff); 20 nM calpain-I, 100 μM Suc-Leu-Tyr-AMC, pH 7.3, room temperature
T1 construct: calpain-I—isolated from human erythrocytes; purchased Calbiochem 208713; host or cells: human erythrocytes (tissue-derived)
T1 sequence (P07384 1-714): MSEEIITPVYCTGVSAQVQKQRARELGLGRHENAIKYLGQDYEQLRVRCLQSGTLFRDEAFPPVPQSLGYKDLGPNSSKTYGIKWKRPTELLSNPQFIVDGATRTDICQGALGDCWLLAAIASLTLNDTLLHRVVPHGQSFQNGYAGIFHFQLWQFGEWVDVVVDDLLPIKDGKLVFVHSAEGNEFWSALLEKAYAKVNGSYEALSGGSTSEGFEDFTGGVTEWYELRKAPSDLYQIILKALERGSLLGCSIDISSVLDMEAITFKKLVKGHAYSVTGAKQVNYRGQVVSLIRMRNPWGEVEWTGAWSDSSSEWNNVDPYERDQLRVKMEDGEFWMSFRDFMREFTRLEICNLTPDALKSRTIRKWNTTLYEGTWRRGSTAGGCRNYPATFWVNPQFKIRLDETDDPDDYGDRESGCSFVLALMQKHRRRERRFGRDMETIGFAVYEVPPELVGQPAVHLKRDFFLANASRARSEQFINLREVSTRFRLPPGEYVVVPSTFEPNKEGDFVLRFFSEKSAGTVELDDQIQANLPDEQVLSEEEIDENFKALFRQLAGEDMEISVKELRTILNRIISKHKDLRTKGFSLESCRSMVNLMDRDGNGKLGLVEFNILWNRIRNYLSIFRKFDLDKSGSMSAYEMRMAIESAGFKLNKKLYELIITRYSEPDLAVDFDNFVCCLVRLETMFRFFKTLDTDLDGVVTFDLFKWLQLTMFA
T1 sequence (P04632 1-268 partner): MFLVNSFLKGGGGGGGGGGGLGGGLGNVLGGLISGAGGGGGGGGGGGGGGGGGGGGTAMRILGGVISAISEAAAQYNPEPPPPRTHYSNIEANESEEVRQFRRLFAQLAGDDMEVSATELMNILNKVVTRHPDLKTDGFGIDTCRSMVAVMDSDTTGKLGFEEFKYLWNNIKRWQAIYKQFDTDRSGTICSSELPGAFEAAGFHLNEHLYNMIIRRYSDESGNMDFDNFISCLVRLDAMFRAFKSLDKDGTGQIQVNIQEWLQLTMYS
Method: (§1) Testing for blockade of the corresponding enzymic activities was carried out by means of kinetic fluorescence assays (excitation 390 nm, emission 460 nm).
(§2) Apparent Ki values were calculated from the experimentally determined IC50 values by the Cheng-Prussoff relation assuming a reversible competitive enzyme inhibition. The Km values of the substrates used under the assay conditions indicated above were: 90 μM (Z-Phe-Arg-AMC, cathepsin B), 10 μM (Z-Gly-Pro-Arg-AMC, cathepsin K), 2 μM (Z-Phe-Arg-AMC, cathepsin L), and 30 μM (Z-Val-Val-Arg-AMC, cathepsin S).
(§3) The indicated Ki values are averages of the inhibition constants calculated on the basis of 2 to 4 independent dose-effect plots.
(§4) • 20 nM calpain-I—isolated from human erythrocytes (Calbiochem #208713), 100 μM Suc-Leu-Tyr-AMC (Bachem #I-1355) as substrate in buffer with 62 mM imidazole, 0.3 mM CaCl2, 0.10% CHAPS, 0.05% BSA, 1 mM DTT at pH 7.3 and room temperature. 1. Cathepsin B: • 0.25 nM cathepsin B—isolated from human liver (Calbiochem #219362), 100 μM Z-Phe-Arg-AMC (Bachem #I-1160) as substrate 50 mM MES, 2 mM EDTA, 0.05% Brij 35, 2.5 mM L-cysteine, pH 6.0, room temperature. 3. Cathepsin K: • 3 nM cathepsin K activated from recombinant human procathepsin K from E. coli (Calbiochem #342001), 10 μM Z-Gly-Pro-Arg-AMC (Biomol #P-142) as substrate in 50 mM MES, 2 mM EDTA, 0.05% Brij 35, 2.5 mM L-cysteine, pH 6.0, room temperature. 4. Cathepsin L: • 1 nM cathepsin L—isolated from human liver (Calbiochem #219402), 2 μM Z-Phe-Arg-AMC (Bachem #I-1160) as substrate in 50 mM MES, 2 mM EDTA, 0.05% Brij 35, 2.5 mM L-cysteine, pH 6.0, room temperature. 5. Cathepsin S: • 0.5 nM recombinant human cathepsin S from E. coli (Calbiochem #219343), 20 μM Z-Val-Val-Arg-AMC (Bachem #I-1540) as substrate in 50 mM MES, 2 mM EDTA, 0.05% Brij 35, 2.5 mM L-cysteine, pH 6.0, room temperature.

[2] = target: T2, cathepsin B isolated from human liver (Homo sapiens, UniProt P07858); experiment: Cathepsin B enzyme inhibition in vitro (kinetic fluorescence assay); conditions: Ki(cathepsin B)/Ki(calpain) ratio
T2 construct: cathepsin B—isolated from human liver; purchased Calbiochem 219362; host or cells: human liver (tissue-derived)
Method: as §1, §2, §3, §4

[3] = target: T3, cathepsin K activated from recombinant human procathepsin K (Homo sapiens, UniProt P43235); experiment: Cathepsin K enzyme inhibition in vitro (kinetic fluorescence assay); conditions: Ki(cathepsin K)/Ki(calpain) ratio
T3 construct: purchased Calbiochem 342001; host or cells: E. coli
T3 sequence (P43235 115-329): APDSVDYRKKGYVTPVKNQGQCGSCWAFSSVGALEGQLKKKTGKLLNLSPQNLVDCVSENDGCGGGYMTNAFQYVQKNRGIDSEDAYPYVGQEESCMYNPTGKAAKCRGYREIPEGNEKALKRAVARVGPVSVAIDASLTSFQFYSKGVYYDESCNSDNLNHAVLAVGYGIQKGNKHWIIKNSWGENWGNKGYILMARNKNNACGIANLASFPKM
Method: as §1, §2, §3, §4

[4] = target: T4, recombinant human cathepsin S (Homo sapiens, UniProt P25774); experiment: Cathepsin S enzyme inhibition in vitro (kinetic fluorescence assay); conditions: Ki(cathepsin S)/Ki(calpain) ratio
T4 construct: purchased Calbiochem 219343; host or cells: E. coli
T4 sequence (P25774 115-331): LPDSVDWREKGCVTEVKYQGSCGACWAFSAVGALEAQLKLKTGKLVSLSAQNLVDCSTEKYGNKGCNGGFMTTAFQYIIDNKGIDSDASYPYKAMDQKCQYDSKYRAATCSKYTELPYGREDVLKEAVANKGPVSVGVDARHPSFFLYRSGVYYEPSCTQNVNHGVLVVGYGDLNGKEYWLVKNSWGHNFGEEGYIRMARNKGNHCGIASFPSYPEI
Method: as §1, §2, §3, §4

Ki [1] [nM] | Sel cat. B [2] | Sel cat. K [3] | Sel cat. S [4] | Compound
< 50 |  |  |  | O=C(NCCc1ccsc1)C(=O)C(Cc1ccccc1)NC(=O)[C@H]1CCC(=O)N1Cc1ccccc1 (single isomer, unassigned) [Example 71]
< 50 |  | + (5<Ki(cathepsin K)/Ki(calpain)≦10) | + (10<Ki(cathepsin S)/Ki(calpain)≦30) | NC(=O)C(=O)C(Cc1ccccc1)NC(=O)[C@H]1CCC(=O)N1Cc1ccc2ccccc2c1 (stereo partly drawn) [Example 12, (2R)—N-(4-Amino-3,4-dioxo-1-phenylbutan-2-yl)-1-(naphthalen-2-ylmethyl)-5-oxopyrrolidine-2-carboxamide]
50 to 100 | ++ (10<Ki(cathepsin B)/Ki(calpain)≦30) | + (5<Ki(cathepsin K)/Ki(calpain)≦10) | ++ (30<Ki(cathepsin B)/Ki(calpain)≦100) | O=C(NCCCc1ccccn1)C(=O)C(Cc1ccccc1)NC(=O)[C@H]1CCC(=O)N1Cc1ccccc1 (mixture of isomers) [Example 32, (2R)-1-Benzyl-N-(3,4-dioxo-1-phenyl-4-(3-(pyridin-2-yl)propylamino)butan-2-yl)-5-oxopyrrolidine-2-carboxamide]
50 to 100 | ++ (10<Ki(cathepsin B)/Ki(calpain)≦30) | ++ (10<Ki(cathepsin B)/Ki(calpain)≦30) | ++ (30<Ki(cathepsin B)/Ki(calpain)≦100) | O=C(NCCCc1ccccc1)C(=O)C(Cc1ccccc1)NC(=O)[C@H]1CCC(=O)N1Cc1ccccc1 (mixture of isomers) [Example 33, (2R)-1-Benzyl-N-(3,4-dioxo-1-phenyl-4-(3-phenylpropylamino)butan-2-yl)-5-oxopyrrolidine-2-carboxamide]
50 to 100 | ++ (10<Ki(cathepsin B)/Ki(calpain)≦30) |  | + (10<Ki(cathepsin S)/Ki(calpain)≦30) | NC(=O)C(=O)C(Cc1ccccc1)NC(=O)c1cccc(=O)n1Cc1ccccc1 (centres unmarked) [Example 4, N-(4-Amino-3,4-dioxo-1-phenylbutan-2-yl)-1-benzyl-6-oxo-1,6-dihydropyridine-2-carboxamide]
100 to 600 |  |  |  | O=C(C(=O)N1CCOCC1)C(Cc1ccccc1)NC(=O)[C@H]1CCC(=O)N1Cc1ccccc1 (mixture of isomers) [Example 54, (2R)-1-Benzyl-N-(4-morpholino-3,4-dioxo-1-phenylbutan-2-yl)-5-oxopyrrolidine-2-carboxamide]
100 to 600 |  |  |  | O=C(NCc1cncs1)C(=O)C(Cc1ccccc1)NC(=O)[C@H]1CCC(=O)N1Cc1ccccc1 (mixture of isomers) [Example 52, (2R)-1-Benzyl-N-(3,4-dioxo-1-phenyl-4-(thiazol-5-ylmethylamino)butan-2-yl)-5-oxopyrrolidine-2-carboxamide]
50 to 100 |  |  |  | O=C(NCc1ccco1)C(=O)C(Cc1ccccc1)NC(=O)[C@H]1CCC(=O)N1Cc1ccccc1 (mixture of isomers) [Example 72, (2R)-1-Benzyl-N-(4-(furan-2-ylmethylamino)-3,4-dioxo-1-phenylbutan-2-yl)-5-oxopyrrolidine-2-carboxamide]
100 to 600 |  | ++ (10<Ki(cathepsin B)/Ki(calpain)≦30) | ++ (30<Ki(cathepsin B)/Ki(calpain)≦100) | O=C(NCCc1ccccn1)C(=O)C(Cc1ccccc1)NC(=O)[C@H]1CCC(=O)N1Cc1ccccc1 (mixture of isomers) [Example 31, (2R)-1-Benzyl-N-(3,4-dioxo-1-phenyl-4-(2-(pyridin-2-yl)-ethylamino)butan-2-yl)-5-oxopyrrolidine-2-carboxamide]
50 to 100 |  |  |  | O=C(NC[C@@H]1CCCO1)C(=O)C(Cc1ccccc1)NC(=O)[C@H]1CCC(=O)N1Cc1ccccc1 (stereo partly drawn) [Example 70, (2R)-1-Benzyl-N-(3,4-dioxo-1-phenyl-4-(((S)-tetrahydrofuran-2-yl)methylamino)-butan-2-yl)-5-oxopyrrolidine-2-carboxamide]
100 to 600 |  |  |  | O=C(NC[C@H]1CCCO1)C(=O)C(Cc1ccccc1)NC(=O)[C@H]1CCC(=O)N1Cc1ccccc1 (mixture of isomers) [Example 69, (2R)-1-Benzyl-N-(3,4-dioxo-1-phenyl-4-(((R)-tetrahydrofuran-2-yl)methylamino)-butan-2-yl)-5-oxopyrrolidine-2-carboxamide]
50 to 100 |  |  |  | O=C(NCc1nc2ccccc2s1)C(=O)C(Cc1ccccc1)NC(=O)[C@H]1CCC(=O)N1Cc1ccccc1 (stereo partly drawn) [Example 53, (2R)—N-(4-(Benzo[d]thiazol-2-ylmethylamino)-3,4-dioxo-1-phenylbutan-2-yl)-1-benzyl-5-oxopyrrolidine-2-carboxamide]
100 to 600 |  |  |  | COc1cccc(C(F)(F)F)c1CN1C(=O)CC[C@@H]1C(=O)NC(Cc1ccccc1)C(=O)C(=O)NC1CC1 (mixture of isomers) [Example 74, (2R)—N-(4-(Cyclopropylamino)-3,4-dioxo-1-phenylbutan-2-yl)-1-(2-methoxy-6-(trifluoromethyl)benzyl)-5-oxopyrrolidine-2-carboxamide]
100 to 600 |  |  |  | CCNC(=O)C(=O)C(Cc1ccccc1)NC(=O)[C@H]1CCC(=O)N1Cc1ccc(C(F)(F)F)cc1 (mixture of isomers) [Example 55, (2R)—N-(4-(ethylamino)-3,4-dioxo-1-phenylbutan-2-yl)-5-oxo-1-(4-(trifluoromethyl)benzyl)pyrrolidine-2-carboxamide]

Compound | Ki [1] [nM] | Sel cat. B [2] | Sel cat. K [3] | Sel cat. S [4]
NC(=O)C(=O)C(Cc1ccccc1)NC(=O)[C@H]1CCC(=O)N1Cc1cccc(OC(F)(F)F)c1 (stereo partly drawn) [Example 13, (2R)—N-(4-Amino-3,4-dioxo-1-phenylbutan-2-yl)-5-oxo-1-[3-(trifluoromethoxy)-benzyl]pyrrolidine-2-carboxamide] | 100 to 600 | + (5<Ki(cathepsin B)/Ki(calpain)≦10) | +++ (Ki(cathepsin K)/Ki(calpain) ratio of >30) | ++ (30<Ki(cathepsin B)/Ki(calpain)≦100)
CN1C[C@H](C(=O)NC(Cc2ccccc2)C(=O)C(N)=O)N(Cc2ccccc2)C1=O (stereo partly drawn) [Example 18, (4R)—N-(4-Amino-3,4-dioxo-1-phenylbutan-2-yl)-3-benzyl-1-methyl-2-oxoimidazolidine-4-carboxamide] | 100 to 600 | +++ (Ki(cathepsin B)/Ki(calpain) ratio of >30) |  | 
